Series [1] is described as follows: Oxygen radical absorbance capacity (ORAC) assay. The method, then: The ORAC assay was performed following Ou et al., as modified by Garcés-Rimón et al.. All samples and reagents were dissolved in phosphate buffer (75 mM; pH 7.4). […] The fluorescence was recorded at 40 °C every 55 s for 95 min using a fluorimeter (SpectraMax M2; Molecular Devices, California, USA), with excitation and emission wavelengths of 480 and 520 nm, respectively. All samples were tested in triplicate. ORAC values were expressed as μmol of Trolox equivalents (TE)/μmol of pure compound.

The nature of series [2]: Stability in aqueous media (H2O/acetonitrile 80:20, HPLC-MS). Conditions: for Aqueous Stability (%): remaining pure compound (HPLC) after two months at room temperature in aqueous solution (+20% acetonitrile); for stability in aqueous media: H2O/acetonitrile (80:20%), room temperature, checked for 60 days. It is filed as physicochemical. The text has this:
The solutions were checked by HPLC-MS at regular intervals of time for 60 days. […] The rest of the compounds suffered progressive degradation, with complete disappearance from the solution after 10 or 20 days. The most unstable polyphenol derivatives were 4 and 10 (Figure S1), having both two p-dihydroxy substitutions in the phenyl rings, which points to the rapid and easy oxidation to the p-hydroquinone. From the four compounds with three phenyl rings, only one was stable in aqueous solution (17).

Series [3] in a line: ABTS radical cation scavenging assay. The method, then: The 2,2′-azino-bis (3-ethylbenzothiazoline-6-sulfonic acid) diammonium salt (ABTS) assay was performed according to Re et al. and modified by Oki et al. for its use in microplates. Samples were diluted in methanol. An ABTS^•+ stock solution was prepared by adding 44 μL of potassium persulfate (140 mmol/L) to a 2.5 mL ABTS^•+ aqueous solution (7 mmol/L). The working solution of the radical ABTS^+ was prepared by diluting the stock solution 1:75 (v/v) in a sodium phosphate buffer (5 mmol/L, pH 7.4) to obtain an absorbance value of 0.7±0.02 at 734 nm. Samples (30 μL) were added to 270 μL of the working solution of ABTS^•+ in a microplate. Absorbance was measured at 734 nm and 30 °C for 20 min, every 5 min in a Synergy HT plate spectrophotometer (Biotek Instruments, Winoosky, VT, USA). A calibration curve was made with Trolox (20–250 μM). All samples were analyzed in triplicate. Results were expressed in μmol TE/μmol of pure compound, as for the ORAC assays.

Series [4] relates to Saccharomyces cerevisiae strain BY4741. In words: In vivo antioxidant capacity in stressed yeasts (growth recovery, survivors). It is filed as cell-based. How it is done: Saccharomyces cerevisiae haploid strain BY4741 was used as described previously. Briefly, 20 μL of glycerol stock culture was revived in 5ml of YPD medium (1% yeast extract, 2% bacteriological peptone and 2% dextrose) at 28 °C, with shaking (210 rpm). Fifty microliters of 20-h-old culture was used to inoculate fresh 5ml YPD (control medium) or 5 mL of oxidative stress medium (YPOxD: YPOxD; 1% yeast extract, 2% bacteriological peptone, 1% dextrose and 3% H2O2). Stress (and control) was conducted during 16h at 28 °C, with shaking (220 rpm).
Growth rate was determined from growth kinetics using the BioScreen C plate-reader system (OY Growth Curves Ab Ldt., Helsinki, Finland). Stressed yeast cultures (16 h old) were used to inoculate 200 µl of fresh media to an initial OD595 of 0.05–0.07, being distributed in 100-well honeycomb plates (Oy Growth Curves) in triplicate per each condition (each different dose of each compound). Plates were then incubated at 28 °C for 72h, with shaking (High force), taking OD measurement each 15 min in the Bioscreen C. Maximum growth rate (μmax) and biomass production (carrying capacity) were determined in R using ‘Growthcurver’ package version 0.3 [24]. Growth curves were constructed in EXCEL, represented as mean ± SEM (standard error of mean). […] In addition, to measure survival after oxidative stress and antioxidant effectiveness of each compound, yeast cells from each challenge were serially diluted in 96-well plates, and each dilution was spotted (with a 8 × 6 stainless steel replica platter from SIGMA) in triplicate to determine viable colonies after 24–48 h at 28 °C. Survivors (mean ± SEM) were compared between treatments with one-way ANOVA, Fisher’s LSD test, with alpha at 0.05 for significance.

A short description of series [5]: Aqueous thermodynamic solubility in H2O (UV). It is filed as physicochemical. Particulars: water, thermodynamic from solid. The source says:
4) Log P and aqueous solubility of selected compounds.
Table S2. Theoretical Log P values and aqueous thermodynamic solubility measured for
Comp `Chemical Structure MW LogP Calc Aqueous Solubility a
a Thermodynamic solubility in H 2O (UV). […]

The structures appear in SMILES notation. ≈ marks a conversion by molar mass, not a printed value. Where two headings read alike, the source gives them in different places.

What is called melting point is the temperature of the solid-liquid transition. As to `O=C(Nc1ccc(O)c(O)c1)Nc1cc(O)ccc1O` [Compound 13, N-(2,5-Dihydroxyphenyl)-N′-(3′,4′-dihydroxyphenyl)urea], the melting point is 141 to 143 °C. The ORAC in series [1] is listed as 7.8 ± 0.3 µmol of trolox/µmol of pure compound.
On to `O=C(Nc1ccc(O)cc1)Nc1cc(O)ccc1O` [Compound 12, N-(2,5-Dihydroxyphenyl)-N′-(4′-hydroxyphenyl)urea], for which the melting point lay within 180 to 182 °C. In addition, the “Aqueous Stability (%)” value in series [2] turned out to be 0%. For the same compound, the ORAC in series [1] is reported as 12.5 ± 0.7 µmol of trolox/µmol of pure compound.
Consider `OCCc1ccc(O)c(O)c1` [Hydroxytyrosol, reference compound], for which the ABTS in series [3] is 0.97 ± 0.05 µmol of trolox/µmol of pure co. Further, the ORAC in series [1] is reported as 6.33 ± 0.08 µmol of trolox/µmol of pure co.
For `O=C(Cc1cc(O)ccc1O)N(c1ccc(O)cc1)c1ccc(O)cc1` [Compound 9, 2-(2′,5′-Dihydroxyphenyl)-N,N-bis(4-hydroxyphenyl)acetamide], the melting point was in the range of 124 to 126 °C. For the same compound, the “Aqueous Stability (%)” value in series [2] came to 0%. In addition, the ORAC in series [1] was 29.5 ± 0.5 µmol of trolox/µmol of pure compound. For the same compound, the “ORAC” value in series [1] (TE: Trolox Equivalents) is recorded as “above 25 TE”.
For `O=C(Cc1ccc(O)cc1O)Nc1cc(O)ccc1O` [Compound 2, 2-(2′,4′-Dihydroxyphenyl)-N-(2,5-dihydroxyphenyl)acetamide], the ORAC in series [1] is recorded as 8.1 ± 0.1 µmol of trolox/µmol of pure compound.
`O=C(Cc1ccc(O)cc1O)Nc1ccc(O)cc1O` [Compound 5, N-(2,4-Dihydroxyphenyl)-2-(2′,4′-dihydroxyphenyl)acetamide] registered a melting point of 75 to 78 °C. For the same compound, the ORAC in series [1] is 5.2 ± 0.4 µmol of trolox/µmol of pure compound.
Take `O=C(Nc1cc(O)ccc1O)Nc1cc(O)ccc1O` [Compound 16, N,N′-bis(2,5-Dihydroxyphenyl)urea]: the melting point was 109 °C (dec.). Further, in series [2], the “Aqueous Stability (%)” value amounted to 0%. Besides, the ORAC in series [1] is 11.9 ± 0.4 µmol of trolox/µmol of pure compound.
As a reminder, the solubility is the dissolved amount per volume that the medium holds. `O=C(Nc1ccc(O)cc1)Nc1ccc(O)cc1` [Compound 15, N,N′-bis(4-Hydroxyphenyl)urea]: the melting point was 245 °C. Further, in series [2], the “stability in aqueous media” value was “sufficiently stable” and the “Aqueous Stability (%)” value is listed as 90%. Besides, in series [3], the ABTS is on record as 1.17 ± 0.01 µmol of trolox/µmol of pure compound. For the same compound, in series [1], the ORAC was 8.9 ± 0.4 µmol of trolox/µmol of pure compound. Moreover, the “growth rate (r) recovery of stressed yeast” value in series [4] (H2O2-stressed BY4741, doses 2, 20 and 40 μg) is given as “dose-related antioxidant effect”. In addition, the “carrying capacity (k) recovery of stressed yeast” value in series [4] (H2O2-stressed BY4741, each dose tested) was “able to recover the carrying capacity of yeast cells similarly as control antioxidants”. Further, the “carrying capacity (k) recovery of stressed yeast, 2 μg dose” value in series [4] (low 2 μg dose) was “slightly better than the other two polyphenols and resveratrol”. The solubility in series [5] was 0.0626 ± 0.0001 mg/mL (≈ 256 µM).
Take `O=C(Cc1cc(O)ccc1O)Nc1ccc(O)c(O)c1` [Compound 6, 2-(2′,5′-Dihydroxyphenyl)-N-(3,4-dihydroxyphenyl)acetamide]: the melting point was 180 °C (dec.). Moreover, the “Aqueous Stability (%)” value in series [2] turned out to be 0%. Besides, in series [1], the ORAC was 9.4 ± 0.4 µmol of trolox/µmol of pure compound.
Take `Oc1cc(O)c2c(c1)OC(c1ccc(O)c(O)c1)C(O)C2` [D-Catechin, reference compound]: the ABTS in series [3] was 3.17 ± 1.22 µmol of trolox/µmol of pure co. In addition, the ORAC in series [1] is recorded as 8.59 ± 0.84 µmol of trolox/µmol of pure co.
For `O=C(Nc1cc(O)ccc1O)N(Cc1cc(O)ccc1O)c1ccc(O)cc1` [Compound 18, N-(2′,5′-Dihydroxybenzyl)-N′-(2″,5″-dihydroxiphenyl)-N-(4-hydroxyphenyl)urea], the melting point lay within 114 to 115 °C. Moreover, the “Aqueous Stability (%)” value in series [2] was determined as 0%. Also, the ORAC in series [1] is recorded as 15.3 ± 0.7 µmol of trolox/µmol of pure compound.
The like results for `O=C(Cc1cc(O)ccc1O)Nc1ccc(O)cc1O` [Compound 1, N-(2,4-Dihydroxyphenyl)-2-(2′,5′-dihydroxyphenyl)acetamide] were, in that order, 178 to 180 °C, 2% and 11.0 ± 0.4 µmol of trolox/µmol of pure compound.
Turning to `O=C(Cc1cc(O)ccc1O)N(Cc1cc(O)ccc1O)c1ccc(O)cc1` [Compound 10, N-(2′,5′-Dihydroxybenzyl)-2-(2″,5″-dihydroxyphenyl)-N-(4-hydroxyphenyl) acetamide], the melting point was 114 to 116 °C. Also, in series [2], the “stability in aqueous media” value is given as “most unstable” and the “Aqueous Stability (%)” value stood at 0%. Moreover, the ORAC in series [1] is 27.6 ± 0.5 µmol of trolox/µmol of pure compound. For the same compound, the “ORAC” value in series [1] (TE: Trolox Equivalents) is “above 25 TE”.
As for `O=C(Cc1cc(O)ccc1O)Nc1cc(O)ccc1O` [Compound 4, N-(2,5-Dihydroxyphenyl)-2-(2′,5′-dihydroxyphenyl)acetamide], the melting point is 204 to 207 °C (dec.). In addition, in series [2], the “stability in aqueous media” value was “most unstable” and the “Aqueous Stability (%)” value is on record as 0%. The ORAC in series [1] is recorded as 14.4 ± 0.2 µmol of trolox/µmol of pure compound.
Regarding `O=C(Nc1ccc(O)cc1O)Nc1cc(O)ccc1O` [Compound 11, N-(2,4-Dihydroxyphenyl)-N′-(2′,5′-dihydroxyphenyl)urea], the melting point is > 155 °C (dec.). Also, in series [1], the ORAC is on record as 6.6 ± 0.1 µmol of trolox/µmol of pure compound.
Turning to `O=C(Nc1ccc(O)cc1)Nc1ccc(O)c(O)c1` [Compound 14, N-(3,4-Dihydroxyphenyl)-N′-(4′-hydroxyphenyl)urea], the melting point was 184 to 187 °C. The “Aqueous Stability (%)” value in series [2] worked out at 0%. Besides, the ORAC in series [1] is on record as 9.6 ± 0.1 µmol of trolox/µmol of pure compound.
Regarding `Oc1cc(O)c2c(c1)O[C@H](c1ccc(O)c(O)c1)[C@H](O)C2` [(-)-Epicatechin, reference compound], the ABTS in series [3] is recorded as 5.90 ± 0.73 µmol of trolox/µmol of pure co. Moreover, in series [1], the ORAC is recorded as 10.03 ± 5.92 µmol of trolox/µmol of pure co.
With `O=c1c(O)c(-c2ccc(O)c(O)c2)oc2cc(O)cc(O)c12` [Quercetin, reference compound], the ABTS in series [3] is given as 5.28 ± 0.29 µmol of trolox/µmol of pure co. The ORAC in series [1] is on record as 6.61 ± 0.27 µmol of trolox/µmol of pure co.

(Values after PMC7555119, “Characterization of Novel Synthetic Polyphenols: Validation of Antioxidant and Vasculoprotective Activities” (Antioxidants, 2020).)
